Source: patent US11078193B2 (priority 2014, dated 2021)
pEC50: −log10 of the molar value.

Tests used:
[1] = Cytotoxicity, HepG2 cells, Resazurin assay; format: cell-based; conditions: human
HBV [2] = assay: anti-HBV activity, HepG2.2.15 stable transfected cell line, HBV DNA from secreted virions by realtime PCR; format: cell-based; conditions: Hepatitis B virus, 144 h, HepG2.2.15 cells, 6 days of treatment
HBV [3] = assay: anti HBV activity, HepG2.117 inducibly HBV producing cell line (Tet-off), intracellular HBV DNA by realtime PCR; format: cell-based; conditions: Hepatitis B virus, 72 h, HepG2.117 cells, 3 days of treatment
[4] = ATP based toxicity assay (ATPlite), HepG2 cell line; conditions: human, HepG2 cells, ATPlite (ATP levels)
In short: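 HepG2 cells exposed to compound, then ATPlite reagent added at 1 volume. Cellular ATP read by luminescence as a viability measure.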

Compound: Cc1nc(NC(=O)c2c(Cl)c(S(=O)(=O)N[C@H](C)C(F)(F)F)cn2C)ccc1F [Compound 7, 3-Chloro-N-(5-fluoro-6-methylpyridin-2-yl)-1-methyl-4-{[(1R)-2,2,2-trifluoro-1-methylethyl]sulfamoyl}-1H-pyrrole-2-carboxamide]
- melting point: 173.1 °C
- CC50 at 4 days [1]: > 25 µM
- pEC50 (HBV [2]): 7.05
- pEC50 (HBV [3]): 6.60
- CC50 at 4 days [4]: > 25 µM

Compound: Cc1cc(NC(=O)c2c(Cl)c(S(=O)(=O)N[C@H](C)C(F)(F)F)cn2C)ccn1 [Compound 8, 3-Chloro-1-methyl-N-(2-methylpyridin-4-yl)-4-{[(1R)-2,2,2-trifluoro-1-methylethyl]sulfamoyl}-1H-pyrrole-2-carboxamide]
- melting point: 203.5 °C
- CC50 at 4 days [1]: > 25 µM
- pEC50 (HBV [2]): 7.05
- pEC50 (HBV [3]): 6.77

Compound: C[C@@H](NS(=O)(=O)c1cn(C)c(C(=O)Nc2ccnc(C#N)c2)c1Cl)C(F)(F)F [Compound 9, 3-Chloro-N-(2-cyanopyridin-4-yl)-1-methyl-4-{[(1R)-2,2,2-trifluoro-1-methylethyl]sulfamoyl}-1H-pyrrole-2-carboxamide]
- melting point: 190.8 °C
- CC50 at 4 days [1]: > 25 µM
- pEC50 (HBV [2]): 7.70
- pEC50 (HBV [3]): 7.40
- CC50 at 4 days [4]: > 25 µM

Compound: C[C@@H](NS(=O)(=O)c1cn(C)c(C(=O)Nc2ccnc(F)c2)c1Cl)C(F)(F)F [Compound 11, 3-Chloro-N-(2-fluoropyridin-4-yl)-1-methyl-4-{[(1R)-2,2,2-trifluoro-1-methylethyl]sulfamoyl}-1H-pyrrole-2-carboxamide]
- melting point: 218.1 °C
- CC50 at 4 days [1]: > 25 µM
- pEC50 (HBV [2]): 7.70
- pEC50 (HBV [3]): 7.22

Compound: Cc1nccc(NC(=O)c2c(Cl)c(S(=O)(=O)N[C@H](C)C(F)(F)F)cn2C)c1F [Compound 14, 3-chloro-N-(3-fluoro-2-methyl-4-pyridyl)-1-methyl-4-[[(1R)-2,2,2-trifluoro-1-methyl-ethyl]sulfamoyl]pyrrole-2-carboxamide]
- melting point: 197.8 °C
- CC50 at 4 days [1]: > 25 µM
- pEC50 (HBV [2]): 7.22
- pEC50 (HBV [3]): 6.92

Compound: C[C@@H](NS(=O)(=O)c1cn(C)c(C(=O)Nc2ccccn2)c1Cl)C(F)(F)F [Compound 15, 3-chloro-1-methyl-N-(2-pyridyl)-4-[[(1R)-2,2,2-trifluoro-1-methyl-ethyl]sulfamoyl]pyrrole-2-carboxamide]
- melting point: 195.2 °C
- CC50 at 4 days [1]: > 25 µM
- pEC50 (HBV [2]): < 6.00
- pEC50 (HBV [3]): < 6.00

Compound: C[C@@H](NS(=O)(=O)c1cn(C)c(C(=O)Nc2ccncc2)c1Cl)C(F)(F)F [Compound 16, 3-chloro-1-methyl-N-(4-pyridyl)-4-[[(1R)-2,2,2-trifluoro-1-methyl-ethyl]sulfamoyl]pyrrole-2-carboxamide]
- melting point: 259.3 °C
- CC50 at 4 days [1]: > 25 µM
- pEC50 (HBV [2]): 6.40
- pEC50 (HBV [3]): 6.55

Compound: C[C@@H](NS(=O)(=O)c1cn(C)c(C(=O)Nc2cccnc2)c1Cl)C(F)(F)F [Compound 17, 3-chloro-1-methyl-N-(3-pyridyl)-4-[[(1R)-2,2,2-trifluoro-1-methyl-ethyl]sulfamoyl]pyrrole-2-carboxamide]
- melting point: 196.6 °C
- CC50 at 4 days [1]: > 25 µM
- pEC50 (HBV [2]): 6.12
- pEC50 (HBV [3]): 6.28

Compound: Cn1cc(S(=O)(=O)NC2(C(F)(F)F)CCC2)c(Cl)c1C(=O)Nc1ccnc(C#N)c1 [Compound 40, 3-chloro-N-(2-cyano-4-pyridyl)-1-methyl-4-[[1-(trifluoromethyl)cyclobutyl]sulfamoyl]pyrrole-2-carboxamide]
- CC50 at 4 days [1]: > 25 µM
- pEC50 (HBV [2]): 7.70
- pEC50 (HBV [3]): 7.70
- CC50 at 4 days [4]: > 25 µM

Compound: Cn1cc(S(=O)(=O)NC2(C(F)(F)F)CCC2)c(Cl)c1C(=O)Nc1ccnc(Cl)c1 [Compound 46, 3-chloro-N-(2-chloro-4-pyridyl)-1-methyl-4-[[1-(trifluoromethyl)cyclobutyl]-sulfamoyl]pyrrole-2-carboxamide]
- CC50 at 4 days [1]: > 25 µM
- pEC50 (HBV [2]): 8.00
- pEC50 (HBV [3]): 7.70
- CC50 at 4 days [4]: > 25 µM

Compound: C[C@@H](NS(=O)(=O)c1cn(C)c(C(=O)Nc2ccnc(Cl)c2)c1F)C(C)(F)F [Compound 61, N-(2-chloro-4-pyridyl)-4-[[(1R)-2,2-difluoro-1-methyl-propyl]sulfamoyl]-3-fluoro-1-methyl-pyrrole-2-carboxamide]
- CC50 at 4 days [1]: > 25 µM
- pEC50 (HBV [2]): 8.00
- pEC50 (HBV [3]): 7.70
- CC50 at 4 days [4]: > 25 µM

Compound: C[C@@H](NS(=O)(=O)c1cn(C)c(C(=O)Nc2ccnc(C#N)c2)c1F)C(C)(F)F [Compound 63, N-(2-cyano-4-pyridyl)-4-[[(1R)-2,2-difluoro-1-methyl-propyl]sulfamoyl]-3-fluoro-1-methyl-pyrrole-2-carboxamide]
- CC50 at 4 days [1]: > 25 µM
- pEC50 (HBV [2]): 8.00
- pEC50 (HBV [3]): 7.52
- CC50 at 4 days [4]: > 25 µM

Compound: C[C@@H](NS(=O)(=O)c1cn(C)c(C(=O)Nc2ccnc(C(F)F)c2)c1Cl)C(F)(F)F [Compound 74, 3-chloro-N-[2-(difluoromethyl)-4-pyridyl]-1-methyl-4-[[(1R)-2,2,2-trifluoro-1-methyl-ethyl]sulfamoyl]pyrrole-2-carboxamide]
- CC50 at 4 days [1]: > 25 µM
- pEC50 (HBV [2]): 7.70
- pEC50 (HBV [3]): 7.70
- CC50 at 4 days [4]: > 25 µM

Compound: C[C@@H](NS(=O)(=O)c1cn(C)c(C(=O)Nc2ccnc(C(F)F)c2)c1F)C(F)(F)F [Compound 80, N-[2-(difluoromethyl)-4-pyridyl]-3-fluoro-1-methyl-4-[[(1R)-2,2,2-trifluoro-1-methyl-ethyl]sulfamoyl]pyrrole-2-carboxamide]
- CC50 at 4 days [1]: > 25 µM
- pEC50 (HBV [2]): 8.00
- pEC50 (HBV [3]): 7.70
- CC50 at 4 days [4]: > 25 µM

Compound: Cn1cc(S(=O)(=O)NC2(C)CC(F)(F)C2)c(F)c1C(=O)Nc1ccnc(Cl)c1F [Compound 81, N-(2-chloro-3-fluoro-4-pyridyl)-4-[(3,3-difluoro-1-methyl-cyclobutyl)sulfamoyl]-3-fluoro-1-methyl-pyrrole-2-carboxamide]
- CC50 at 4 days [1]: 24.3 µM
- pEC50 (HBV [2]): 8.00
- pEC50 (HBV [3]): 8.10
- CC50 at 4 days [4]: > 25 µM

Compound: C[C@@H](NS(=O)(=O)c1cn(C)c(C(=O)Nc2ccnc(C(F)F)c2)c1F)C(C)(F)F [Compound 88, 4-[[(1R)-2,2-difluoro-1-methyl-propyl]sulfamoyl]-N-[2-(difluoromethyl)-4-pyridyl]-3-fluoro-1-methyl-pyrrole-2-carboxamide]
- CC50 at 4 days [1]: > 25 µM
- pEC50 (HBV [2]): 8.15
- pEC50 (HBV [3]): 8.00
- CC50 at 4 days [4]: > 25 µM

Compound: C[C@@H](NS(=O)(=O)c1cn(C)c(C(=O)Nc2ccnc(F)c2)c1Cl)C(C)(F)F [Compound 95, 3-chloro-4-[[(1R)-2,2-difluoro-1-methyl-propyl]sulfamoyl]-N-(2-fluoro-4-pyridyl)-1-methyl-pyrrole-2-carboxamide]
- CC50 at 4 days [1]: 21.6 µM
- pEC50 (HBV [2]): 7.22
- pEC50 (HBV [3]): 7.40
- CC50 at 4 days [4]: > 25 µM

Compound: C[C@@H](NS(=O)(=O)c1cn(C)c(C(=O)Nc2ccnc(C(F)F)c2)c1Cl)C(C)(F)F [Compound 97, 3-chloro-4-[[(1R)-2,2-difluoro-1-methyl-propyl]sulfamoyl]-N-[2-(difluoromethyl)-4-pyridyl]-1-methyl-pyrrole-2-carboxamide]
- CC50 at 4 days [1]: > 25 µM
- pEC50 (HBV [2]): 7.70
- pEC50 (HBV [3]): 7.70
- CC50 at 4 days [4]: > 25 µM

Compound: C[C@@H](NS(=O)(=O)c1cn(C)c(C(=O)Nc2ccnc(F)c2)c1F)C(C)(F)F [Compound 98, 4-[[(1R)-2,2-difluoro-1-methyl-propyl]sulfamoyl]-3-fluoro-N-(2-fluoro-4-pyridyl)-1-methyl-pyrrole-2-carboxamide]
- CC50 at 4 days [1]: > 25 µM
- pEC50 (HBV [2]): 7.40
- pEC50 (HBV [3]): 7.52
- CC50 at 4 days [4]: > 25 µM

Compound: Cn1cc(S(=O)(=O)NC2(C)CC(F)(F)C2)c(Cl)c1C(=O)Nc1ccnc(C(F)F)c1 [Compound 99, 3-chloro-4-[(3,3-difluoro-1-methyl-cyclobutyl)sulfamoyl]-N-[2-(difluoromethyl)-4-pyridyl]-1-methyl-pyrrole-2-carboxamide]
- CC50 at 4 days [1]: > 25 µM
- pEC50 (HBV [2]): 8.00
- pEC50 (HBV [3]): 7.70
- CC50 at 4 days [4]: > 25 µM

Compound: C[C@@H](NS(=O)(=O)c1cn(C)c(C(=O)Nc2cc(F)nc(F)c2)c1Cl)C(C)(F)F [Compound 104, 3-chloro-4-[[(1R)-2,2-difluoro-1-methyl-propyl]sulfamoyl]-N-(2,6-difluoro-4-pyridyl)-1-methyl-pyrrole-2-carboxamide]
- CC50 at 4 days [1]: > 25 µM
- pEC50 (HBV [2]): > 7.00
- pEC50 (HBV [3]): 8.00
- CC50 at 4 days [4]: > 25 µM

Compound: C[C@@H](NS(=O)(=O)c1cn(C)c(C(=O)Nc2ccnc(Br)c2)c1Cl)C(C)(F)F [Compound 105, N-(2-bromo-4-pyridyl)-3-chloro-4-[[(1R)-2,2-difluoro-1-methyl-propyl]sulfamoyl]-1-methyl-pyrrole-2-carboxamide]
- CC50 at 4 days [1]: > 25 µM
- pEC50 (HBV [2]): > 7.00
- pEC50 (HBV [3]): 7.70
- CC50 at 4 days [4]: 23.3 µM

Compound: Cc1cc(NC(=O)c2c(F)c(S(=O)(=O)N[C@H](C)C(F)(F)F)cn2C)cc(F)n1 [Compound 152, 3-fluoro-N-(2-fluoro-6-methyl-4-pyridyl)-1-methyl-4-[[(1R)-2,2,2-trifluoro-1-methyl-ethyl]sulfamoyl]pyrrole-2-carboxamide]
- CC50 at 4 days [1]: > 25 µM
- pEC50 (HBV [2]): > 7.00
- pEC50 (HBV [3]): 8.00
- CC50 at 4 days [4]: > 25 µM

Compound: C[C@@H](NS(=O)(=O)c1cn(C)c(C(=O)Nc2cc(F)nc(F)c2)c1F)C(C)(F)F [Compound 159, 4-[[(1R)-2,2-difluoro-1-methyl-propyl]sulfamoyl]-N-(2,6-difluoro-4-pyridyl)-3-fluoro-1-methyl-pyrrole-2-carboxamide]
- CC50 at 4 days [1]: > 25 µM
- pEC50 (HBV [2]): > 7.00
- pEC50 (HBV [3]): 8.05
- CC50 at 4 days [4]: > 25 µM
